Assay results published in patent US20230000813A1, “COMPOUND FOR THE TREATMENT OF BOVINE OR SWINE RESPIRATORY DISEASE” (Intervet Inc., priority 2016, published 2023).
In brackets after ≈: the same amount, converted by molar mass. Several values for one entry are separate records, joined by “and”; a condition that tells them apart may be missing. Equal entries are not always repeated. Marks after values point to notes of the source that are not given here.

Tests used:
[1] = test system: Pasteurella multocida PM 14426 (0006-439, BRD field isolate, macrolide-resistant); assay: MIC, broth-microdilution (CLSI VET01-A4); format: cell-based; conditions: strain PM 14426, macrolide-resistant
Procedure: (§1) The Minimum inhibitory concentrations (MIC) of compounds according to the invention were determined by the broth-microdilution method according to CLSI document VET01-A4.
(§2) Microdilution trays containing a doubling dilution series of the test compound were used for the tests.
(§3) The MIC results were interpreted according to the CLSI documents VET01-S3. The lowest concentration of compound at which no visible growth (i.e. no turbidity) detected by the unaided eye was recorded as the MIC.

[2] = test system: Acinetobacter baumanii AB 15919 (IV369-2012, dermatitis field isolate); assay: MIC, broth-microdilution (CLSI VET01-A4); format: cell-based; conditions: strain AB 15919
Procedure: as §1, §2, §3

[3] = test system: Acinetobacter baumanii AB 16496 (ATCC 19606, reference strain); assay: MIC, broth-microdilution (CLSI VET01-A4); format: cell-based; conditions: strain AB 16496
Procedure: as §1, §2, §3

[4] = test system: Staphylococcus aureus SA 5816 (2139, mastitis field isolate); assay: MIC, broth-microdilution (CLSI VET01-A4); format: cell-based; conditions: strain SA 5816
Procedure: as §1, §2, §3

[5] = test system: Mannheimia haemolytica MH 12180 (KLI-02944, BRD field isolate); assay: MIC, broth-microdilution (CLSI VET01-A4); format: cell-based; conditions: strain MH 12180
Procedure: as §1, §2, §3

[6] = test system: Staphylococcus aureus SA 6114 (ATCC 29213, reference strain); assay: MIC, broth-microdilution (CLSI VET01-A4); format: cell-based; conditions: strain SA 6114
Procedure: as §1, §2, §3

[7] = test system: 20 isolates of Histophilus (H.) somni; assay: MIC50/MIC90, broth-microdilution, European respiratory tract isolates; format: cell-based
Procedure: (§4) The in vitro activity of compounds against 20 isolates of Actinobacillus (A.) pleuropneumoniae, 20 of Bordetella (B.) bronchiseptica, 20 of Histophilus (H.) somni, 40 of Mannheimia (M.) haemolytica and 40 of Pasteurella (P.) multocida collected in different European countries were determined. All bacteria were isolated from the respiratory tract of swine and cattle suffering from respiratory disease. All isolates were epidemiologically unrelated as specified by the different suppliers.
(§5) The minimum inhibitory concentrations (MIC) of compounds according to the invention were determined by the broth-microdilution method according to CLSI document VET01-A4.
(§6) Microdilution trays containing a doubling dilution series of the test compounds were used for the tests.
as §3

[8] = test system: 20 isolates of Actinobacillus (A.) pleuropneumoniae; assay: as above; format: cell-based
Procedure: as §4, §5, §6, §3

[9] = test system: 40 isolates of Mannheimia (M.) haemolytica; assay: as above; format: cell-based
Procedure: as §4, §5, §6, §3

[10] = test system: 40 isolates of Pasteurella (P.) multocida; assay: as above; format: cell-based
Procedure: as §4, §5, §6, §3

[11] = test system: 20 isolates of Bordetella (B.) bronchiseptica; assay: as above; format: cell-based
Procedure: as §4, §5, §6, §3

M. haemolytica = assay: Mannheimia haemolytica cattle lung infection model, efficacy (Example 10); format: in vivo, cattle calves; conditions: for Food consumption, cumulated for all animals in the group: 3 calves, 10 mg/kg
Procedure: Unless otherwise described the study was conducted as described in Clinical Example 8
Calves were infected via intratracheal instillation of appr. 300 mL of M. haemolytica PBS suspension containing approximately 4×10^9 CFU M. haemolytica in late log phase on Day 0.
One hour later three animals each were treated with 10 mg/kg of Compound 231(referred to as C. 231) (80 mg/mL in 10% Poloxamer 188), or 10 mg/kg or 5 mg/kg Compound 329 (referred to as C. 329) (150 mg/mL in 35% Cavitron).
The following clinical findings were recorded: The general behavior scores of the animals before (DO am) and after infection with M. haemolytica in the different treated and control groups are indicated in FIG. 8-1: 0=normal; 1=slightly depressive, 2=moderately depressive, 3=highly depressive, 4=recumbency.
The following pathomorphological findings after section on Day 2 were recorded: After measuring the body weight and the lung weight the Lung body mass ratio was calculated as shown in FIG. 8-2. A healthy animal has a lung body mass ration around 1.7 or lower. The area percentage of lung consolidations compared to the total lung tissue and the lung score determined that is a combined score of such percentage of lung consoldiations and the grade. For the “grade” the degree of lung consolidation score was graded from 0 to 3 for each of eight lung lobes: 0 no visible changes, 1 low graded colour changes or induration, 2 medium graded induration, 3 high graded induration, hepatisation, necrosis.
The geometrical means (CFU/g tissue) of bacteriological re-isolations of Mannheimia haemolytica from lung tissue are illustrated in FIG. 8-4.

[12] = test system: Pasteurella multocida PM 6391 (ATCC 43137, reference strain); assay: MIC, broth-microdilution (CLSI VET01-A4); format: cell-based; conditions: strain PM 6391
Outline: (§7)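 Read-out is visual: the MIC is the lowest compound concentration at which no turbidity is seen by eye. Trays carried a doubling dilution series, with interpretation following CLSI VET01-S3.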

[13] = test system: Pasteurella multocida PM 6267 (P 2225 (L386), reference strain, mouse infection strain); assay: MIC, broth-microdilution (CLSI VET01-A4); format: cell-based; conditions: strain PM 6267
Outline: as §7

[14] = test system: Pasteurella multocida PM 10775 (080130003051, BRD field isolate); assay: MIC, broth-microdilution (CLSI VET01-A4); format: cell-based; conditions: strain PM 10775
Outline: as §7

[15] = test system: Mannheimia haemolytica MH 12587 (1071, BRD field isolate, macrolide-resistance: erm+, E+); assay: MIC, broth-microdilution (CLSI VET01-A4); format: cell-based; conditions: strain MH 12587, macrolide-resistant
Outline: as §7

[16] = test system: Mannheimia haemolytica MH 6374 (ATCC 33396, reference strain); assay: MIC, broth-microdilution (CLSI VET01-A4); format: cell-based; conditions: strain MH 6374
Outline: as §7

[17] = test system: Mannheimia haemolytica MH 10720 (154, BRD field isolate); assay: MIC, broth-microdilution (CLSI VET01-A4); format: cell-based; conditions: strain MH 10720
Outline: as §7

[18] = test system: Mannheimia haemolytica MH 6357 (M7/2, reference strain, cattle infection strain); assay: MIC, broth-microdilution (CLSI VET01-A4); format: cell-based; conditions: strain MH 6357
Outline: as §7

[19] = test system: Pasteurella multocida PM 12080 (IV102277-0093, BRD field isolate); assay: MIC, broth-microdilution (CLSI VET01-A4); format: cell-based; conditions: strain PM 12080
Outline: as §7

[20] = Plasma and tissue concentrations in infected calves (Example 10); format: in vivo, cattle calves; conditions: SC single 10 mg/kg (C 231 in 10% Poloxamer 188; C 329 in 35% Cavitron), individual animals and mean
[21] = calves infected with M. haemolytica, SC, single, 10 mg/kg BW

Q: Which results are given for `COCCNCc1ccc(C#Cc2ccc(C(=O)N[C@H](C(=O)NO)[C@@H](C)O)cc2)cc1` [C. 231]?
A: MIC [1]: 0.032 µg/mL (≈ 0.0752 µM); MIC [2]: >16 µg/mL; MIC [3]: >16 µg/mL; MIC [4]: >16 µg/mL; MIC [5]: 0.5 µg/mL (≈ 1.18 µM); MIC [6]: >16 µg/mL; MIC50 [7]: 0.125 µg/mL (≈ 0.294 µM); MIC90 [7]: 0.25 µg/mL (≈ 0.588 µM); MIC50 [8]: 0.25 µg/mL (≈ 0.588 µM); MIC90 [8]: 0.5 µg/mL (≈ 1.18 µM); MIC50 [9]: 0.5 µg/mL (≈ 1.18 µM); MIC90 [9]: 1 µg/mL (≈ 2.35 µM); MIC50 [10]: ≤0.016 µg/mL; MIC90 [10]: 0.063 µg/mL (≈ 0.148 µM); MIC50 [11]: >16 µg/mL; MIC90 [11]: >16 µg/mL; Food consumption, cumulated for all animals in the group (M. haemolytica; D 0 am, after infection and treatment): 1800** g; Food consumption, cumulated for all animals in the group (M. haemolytica; D 0 pm): 4800 g; Food consumption, cumulated for all animals in the group (M. haemolytica; D +1 am): 4800 g; Food consumption, cumulated for all animals in the group (M. haemolytica; D +1 pm): 4800 g; Food consumption, cumulated for all animals in the group (M. haemolytica; D −1 (before infection)): 4800 g; Bacteriological Cure (x of n) (M. haemolytica; [21]): 2/3; Survival (x of n) (M. haemolytica; [21]): 3/3; efficacy against an artificial lung infection with M. haemolytica in the calf (M. haemolytica; tested dosages 10 mg/kg for C 231 and 10 mg/kg and 5 mg/kg for C 329, conclusion in words): effective; MIC [12]: 0.063 µg/mL (≈ 0.148 µM); MIC [13]: ≤0.016 µg/mL; MIC [14]: ≤0.016 µg/mL; MIC [15]: 0.5 µg/mL (≈ 1.18 µM); MIC [16]: 0.25 µg/mL (≈ 0.588 µM); MIC [17]: 0.5 µg/mL (≈ 1.18 µM); MIC [18]: 0.5 µg/mL (≈ 1.18 µM); MIC [19]: 0.063 µg/mL (≈ 0.148 µM); Concentration, Tissue (48 h) ELF [20]: BLQ; Concentration, Tissue (48 h) Muscle [20]: 27 ng/mL; Concentration, Plasma 0.5 h ([20]; 10 mg/kg): 1150 ng/mL (2×) and 1320 ng/mL; Concentration, Plasma 2 h ([20]; 10 mg/kg): 448 ng/mL and 468 ng/mL and 447 ng/mL; Concentration, Plasma 4 h ([20]; 10 mg/kg): 179 ng/mL and 171 ng/mL and 180 ng/mL; Concentration, Plasma 6 h ([20]; 10 mg/kg): 83.9 ng/mL and 82.8 ng/mL and 102 ng/mL; Concentration, Plasma 24 h ([20]; 10 mg/kg): 6.21 ng/mL and 10.8 ng/mL and 7.47 ng/mL; Concentration, Plasma 48 h ([20]; 10 mg/kg): BLQ and 7.16 ng/mL and 5.74 ng/mL; Concentration, Tissue (48 h) Kidney ([20]; 10 mg/kg): 56 ng/mL and 53.8 ng/mL and 79.3 ng/mL; Concentration, Tissue (48 h) Liver ([20]; 10 mg/kg): 48.7 ng/mL and 41.2 ng/mL and 66.9 ng/mL; Concentration, Tissue (48 h) Lung ([20]; 10 mg/kg): 26.6 ng/mL and BLQ and 22.4 ng/mL; Concentration, Tissue (48 h) Muscle ([20]; 10 mg/kg): BLQ; Concentration, Plasma 0 h ([20]; predose): BLQ

Q: With `CCCNCc1ccc(C#Cc2ccc(C(=O)N[C@H](C(=O)NO)[C@@H](C)O)cc2)cc1` [C. 251] as the molecule, how does the MIC [1] read?
A: 8 µg/mL (≈ 19.5 µM)

Q: What about the MIC [2] of the same molecule?
A: >16 µg/mL

Q: And the MIC [3]?
A: >16 µg/mL

Q: And the MIC [4]?
A: >16 µg/mL

Q: And the MIC [5]?
A: 8 µg/mL (≈ 19.5 µM)

Q: What about the MIC [6] of the same molecule?
A: >16 µg/mL

Q: What about the MIC50 [7] of the same molecule?
A: 0.125 µg/mL (≈ 0.305 µM)

Q: And the MIC90 [7]?
A: 0.25 µg/mL (≈ 0.611 µM)

Q: And the MIC50 [8]?
A: 0.25 µg/mL (≈ 0.611 µM)

Q: What about the MIC90 [8] of the same molecule?
A: 0.5 µg/mL (≈ 1.22 µM)

Q: What about the MIC50 [9] of the same molecule?
A: 1 µg/mL (≈ 2.44 µM)

Q: And the MIC90 [9]?
A: 1 µg/mL (≈ 2.44 µM)

Q: And the MIC50 [10]?
A: 0.063 µg/mL (≈ 0.154 µM)

Q: And the MIC90 [10]?
A: 0.125 µg/mL (≈ 0.305 µM)

Q: What about the MIC50 [11] of the same molecule?
A: >16 µg/mL

Q: And the MIC90 [11]?
A: >16 µg/mL

Q: What about the MIC [12] of the same molecule?
A: 8 µg/mL (≈ 19.5 µM)

Q: And the MIC [13]?
A: 1 µg/mL (≈ 2.44 µM)

Q: And the MIC [14]?
A: 8 µg/mL (≈ 19.5 µM)

Q: And the MIC [15]?
A: 2 µg/mL (≈ 4.88 µM)

Q: And the MIC [16]?
A: 8 µg/mL (≈ 19.5 µM)

Q: And the MIC [17]?
A: 0.25 µg/mL (≈ 0.611 µM)

Q: And the MIC [18]?
A: 2 µg/mL (≈ 4.88 µM)

Q: What about the MIC [19] of the same molecule?
A: 0.063 µg/mL (≈ 0.154 µM)
